Fold change (FC) and inhibition data for two compounds are collected here from ChEMBL document CHEMBL5653631, “A Potent and Selective ULK1 Inhibitor Suppresses Autophagy and Sensitizes Cancer Cells to Nutrient Stress” (iScience, 2018).

In assay [1] the target is T1, Protein kinase C zeta type (Homo sapiens) (UniProt Q05513).
T1 sequence (whole entry): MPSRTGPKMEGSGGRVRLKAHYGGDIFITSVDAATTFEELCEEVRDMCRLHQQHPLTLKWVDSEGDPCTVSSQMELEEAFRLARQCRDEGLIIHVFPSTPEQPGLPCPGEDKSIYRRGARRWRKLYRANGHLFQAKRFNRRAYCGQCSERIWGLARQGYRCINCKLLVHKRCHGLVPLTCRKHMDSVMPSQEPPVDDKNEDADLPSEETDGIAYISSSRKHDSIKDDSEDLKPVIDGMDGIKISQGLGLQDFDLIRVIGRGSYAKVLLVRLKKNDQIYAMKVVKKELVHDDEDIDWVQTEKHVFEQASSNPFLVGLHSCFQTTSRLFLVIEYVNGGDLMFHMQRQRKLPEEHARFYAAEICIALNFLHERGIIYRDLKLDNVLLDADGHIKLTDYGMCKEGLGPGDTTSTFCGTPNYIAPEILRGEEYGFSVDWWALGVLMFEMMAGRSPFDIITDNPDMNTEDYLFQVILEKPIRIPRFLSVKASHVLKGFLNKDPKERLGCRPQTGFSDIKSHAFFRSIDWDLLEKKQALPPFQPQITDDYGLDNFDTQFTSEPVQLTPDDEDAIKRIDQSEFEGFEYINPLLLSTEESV
Put plainly: Inhibition of human recombinant PKCz at 40 nM related to control ULK1.

Assay [2] deals with Protein kinase C theta type (Homo sapiens) (UniProt Q04759). Put plainly: Inhibition of human recombinant PKCt at 40 nM related to control ULK1.
Chain of Protein kinase C theta type (Homo sapiens) (Q04759 whole entry, looked up): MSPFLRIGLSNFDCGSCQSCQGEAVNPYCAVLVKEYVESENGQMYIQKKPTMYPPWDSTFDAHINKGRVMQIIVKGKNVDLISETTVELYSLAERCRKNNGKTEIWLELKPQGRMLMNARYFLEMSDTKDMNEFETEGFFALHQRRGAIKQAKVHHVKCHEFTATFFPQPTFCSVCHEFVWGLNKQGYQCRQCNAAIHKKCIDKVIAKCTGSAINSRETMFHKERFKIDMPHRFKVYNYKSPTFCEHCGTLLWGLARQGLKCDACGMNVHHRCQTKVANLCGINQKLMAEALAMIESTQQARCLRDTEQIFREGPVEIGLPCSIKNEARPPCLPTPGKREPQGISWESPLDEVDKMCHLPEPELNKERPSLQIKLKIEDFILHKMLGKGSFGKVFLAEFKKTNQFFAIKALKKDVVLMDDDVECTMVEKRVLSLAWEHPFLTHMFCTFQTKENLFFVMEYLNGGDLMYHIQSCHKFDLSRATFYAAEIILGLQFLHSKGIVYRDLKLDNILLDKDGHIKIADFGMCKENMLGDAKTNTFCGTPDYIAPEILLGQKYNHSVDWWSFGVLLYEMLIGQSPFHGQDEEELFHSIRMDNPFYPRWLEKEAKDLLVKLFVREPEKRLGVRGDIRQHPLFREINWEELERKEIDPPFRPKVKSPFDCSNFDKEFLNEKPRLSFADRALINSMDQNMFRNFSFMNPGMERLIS
The target in assay [3] is Tyrosine-protein kinase Yes (Homo sapiens) (UniProt P07947). Put plainly: Inhibition of human recombinant YES at 15 nM in presence of ATP by radiometric assay relative to control.
Chain of Tyrosine-protein kinase Yes (Homo sapiens) (P07947 2-543 limits assumed): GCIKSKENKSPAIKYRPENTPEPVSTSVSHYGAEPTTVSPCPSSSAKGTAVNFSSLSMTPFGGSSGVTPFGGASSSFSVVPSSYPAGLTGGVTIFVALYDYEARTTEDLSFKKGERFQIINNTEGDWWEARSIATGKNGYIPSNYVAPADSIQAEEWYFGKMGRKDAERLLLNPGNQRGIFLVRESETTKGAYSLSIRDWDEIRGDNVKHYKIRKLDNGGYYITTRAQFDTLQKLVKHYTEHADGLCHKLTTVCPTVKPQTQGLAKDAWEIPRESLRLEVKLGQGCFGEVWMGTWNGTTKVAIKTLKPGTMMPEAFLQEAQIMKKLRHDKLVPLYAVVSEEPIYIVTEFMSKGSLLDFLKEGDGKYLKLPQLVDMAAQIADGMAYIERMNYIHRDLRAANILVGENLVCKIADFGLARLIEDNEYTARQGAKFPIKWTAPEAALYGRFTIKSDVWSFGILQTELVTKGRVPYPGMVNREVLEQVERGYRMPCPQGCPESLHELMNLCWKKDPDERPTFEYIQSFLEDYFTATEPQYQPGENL
Assay [4] addresses Serine/threonine-protein kinase MARK2 (Homo sapiens) (UniProt Q7KZI7). Put plainly: Inhibition of human recombinant MARK2 at 15 nM in presence of ATP by radiometric assay relative to control.
Assay [5] addresses T2, Serine/threonine-protein kinase Nek11 (Homo sapiens) (UniProt Q8NG66).
T2 sequence (whole entry): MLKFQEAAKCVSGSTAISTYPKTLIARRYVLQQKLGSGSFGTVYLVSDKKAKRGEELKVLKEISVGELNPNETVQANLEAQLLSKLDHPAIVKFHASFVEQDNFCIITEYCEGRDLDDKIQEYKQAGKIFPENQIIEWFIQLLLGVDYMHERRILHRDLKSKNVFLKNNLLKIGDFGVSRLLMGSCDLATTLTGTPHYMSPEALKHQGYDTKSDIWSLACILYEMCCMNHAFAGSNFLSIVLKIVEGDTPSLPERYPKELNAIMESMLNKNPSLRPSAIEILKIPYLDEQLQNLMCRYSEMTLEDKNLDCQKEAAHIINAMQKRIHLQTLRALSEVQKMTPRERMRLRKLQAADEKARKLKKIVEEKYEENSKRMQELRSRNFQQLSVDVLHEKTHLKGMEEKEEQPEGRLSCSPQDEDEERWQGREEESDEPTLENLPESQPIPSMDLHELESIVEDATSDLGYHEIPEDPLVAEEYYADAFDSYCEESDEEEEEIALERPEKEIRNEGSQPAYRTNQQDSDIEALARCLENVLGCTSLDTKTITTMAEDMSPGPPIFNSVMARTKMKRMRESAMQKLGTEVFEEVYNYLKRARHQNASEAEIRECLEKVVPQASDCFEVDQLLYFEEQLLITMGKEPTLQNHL
Put plainly: Inhibition of human recombinant NEK11 at 15 nM in presence of ATP by radiometric assay relative to control.

The target of assay [6] is Serine/threonine-protein kinase 26 (Homo sapiens) (UniProt Q9P289). Nature of the assay: Inhibition of human recombinant MST4 at 15 nM related to control ULK1.
Chain of Serine/threonine-protein kinase 26 (Homo sapiens) (Q9P289 2-416 limits assumed): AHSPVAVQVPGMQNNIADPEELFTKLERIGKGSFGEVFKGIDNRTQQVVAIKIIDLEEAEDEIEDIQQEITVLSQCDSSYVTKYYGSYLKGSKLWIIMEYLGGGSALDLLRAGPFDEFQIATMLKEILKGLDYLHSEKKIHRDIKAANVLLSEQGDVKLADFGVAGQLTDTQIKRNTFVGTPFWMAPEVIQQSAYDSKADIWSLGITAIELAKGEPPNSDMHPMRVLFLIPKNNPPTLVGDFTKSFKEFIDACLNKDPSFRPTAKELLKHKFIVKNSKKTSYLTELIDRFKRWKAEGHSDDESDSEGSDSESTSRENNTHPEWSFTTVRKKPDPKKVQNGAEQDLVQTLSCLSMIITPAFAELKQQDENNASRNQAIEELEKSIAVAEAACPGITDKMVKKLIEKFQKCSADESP
Assay [7] has as its target T3, Homeodomain-interacting protein kinase 4 (Homo sapiens) (UniProt Q8NE63).
T3 sequence (whole entry): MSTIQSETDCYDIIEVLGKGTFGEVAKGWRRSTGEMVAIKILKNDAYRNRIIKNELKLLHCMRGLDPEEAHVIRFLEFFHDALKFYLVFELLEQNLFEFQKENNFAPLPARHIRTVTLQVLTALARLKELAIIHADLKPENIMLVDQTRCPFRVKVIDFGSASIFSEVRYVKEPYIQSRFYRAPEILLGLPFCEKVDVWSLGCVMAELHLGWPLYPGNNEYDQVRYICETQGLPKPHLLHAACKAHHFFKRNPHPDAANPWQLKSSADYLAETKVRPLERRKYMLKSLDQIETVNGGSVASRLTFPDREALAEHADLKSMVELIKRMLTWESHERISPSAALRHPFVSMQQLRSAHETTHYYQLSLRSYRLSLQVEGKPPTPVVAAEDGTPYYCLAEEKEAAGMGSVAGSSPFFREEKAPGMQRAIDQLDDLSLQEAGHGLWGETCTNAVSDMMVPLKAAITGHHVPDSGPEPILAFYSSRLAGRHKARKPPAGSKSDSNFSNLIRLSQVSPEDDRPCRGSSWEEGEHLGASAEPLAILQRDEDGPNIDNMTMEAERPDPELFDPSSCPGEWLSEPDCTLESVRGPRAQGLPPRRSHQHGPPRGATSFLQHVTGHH
Nature of the assay: Inhibition of human recombinant HIPK4 at 15 nM related to control ULK1.

In assay [8] the target is Serine/threonine-protein kinase N2 (Homo sapiens) (UniProt Q16513). Put plainly: Inhibition of human recombinant PKN2 at 15 nM related to control ULK1.
Chain of Serine/threonine-protein kinase N2 (Homo sapiens) (Q16513 whole entry, looked up): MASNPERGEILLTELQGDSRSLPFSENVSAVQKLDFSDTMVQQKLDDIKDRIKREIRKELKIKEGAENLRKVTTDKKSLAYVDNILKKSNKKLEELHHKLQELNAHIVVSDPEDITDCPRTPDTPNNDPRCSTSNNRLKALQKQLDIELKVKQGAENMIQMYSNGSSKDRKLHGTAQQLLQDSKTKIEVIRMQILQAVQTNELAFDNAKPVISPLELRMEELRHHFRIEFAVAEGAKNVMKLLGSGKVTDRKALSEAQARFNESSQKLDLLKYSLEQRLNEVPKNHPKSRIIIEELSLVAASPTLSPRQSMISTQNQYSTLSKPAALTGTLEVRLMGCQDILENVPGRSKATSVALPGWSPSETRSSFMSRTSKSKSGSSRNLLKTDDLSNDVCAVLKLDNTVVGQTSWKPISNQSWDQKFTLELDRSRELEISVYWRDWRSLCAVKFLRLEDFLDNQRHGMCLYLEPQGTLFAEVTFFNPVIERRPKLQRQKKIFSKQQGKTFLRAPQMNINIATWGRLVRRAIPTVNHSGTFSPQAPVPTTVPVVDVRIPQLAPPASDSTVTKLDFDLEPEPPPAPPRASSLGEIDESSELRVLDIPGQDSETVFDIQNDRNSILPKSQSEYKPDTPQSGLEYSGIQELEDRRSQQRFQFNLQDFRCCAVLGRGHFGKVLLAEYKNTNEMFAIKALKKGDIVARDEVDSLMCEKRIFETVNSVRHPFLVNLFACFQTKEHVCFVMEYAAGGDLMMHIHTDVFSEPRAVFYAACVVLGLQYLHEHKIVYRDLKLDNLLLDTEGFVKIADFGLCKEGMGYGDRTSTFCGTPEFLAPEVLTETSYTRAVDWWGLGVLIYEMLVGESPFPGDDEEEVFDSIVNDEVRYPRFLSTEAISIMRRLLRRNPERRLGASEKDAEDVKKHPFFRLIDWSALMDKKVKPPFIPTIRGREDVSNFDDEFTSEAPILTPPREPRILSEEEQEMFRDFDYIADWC
In assay [9] the target is Dual specificity protein kinase CLK2 (Homo sapiens) (UniProt P49760). Put plainly: Inhibition of human recombinant CLK2 at 15 nM related to control ULK1.
Chain of Dual specificity protein kinase CLK2 (Homo sapiens) (P49760 whole entry, looked up): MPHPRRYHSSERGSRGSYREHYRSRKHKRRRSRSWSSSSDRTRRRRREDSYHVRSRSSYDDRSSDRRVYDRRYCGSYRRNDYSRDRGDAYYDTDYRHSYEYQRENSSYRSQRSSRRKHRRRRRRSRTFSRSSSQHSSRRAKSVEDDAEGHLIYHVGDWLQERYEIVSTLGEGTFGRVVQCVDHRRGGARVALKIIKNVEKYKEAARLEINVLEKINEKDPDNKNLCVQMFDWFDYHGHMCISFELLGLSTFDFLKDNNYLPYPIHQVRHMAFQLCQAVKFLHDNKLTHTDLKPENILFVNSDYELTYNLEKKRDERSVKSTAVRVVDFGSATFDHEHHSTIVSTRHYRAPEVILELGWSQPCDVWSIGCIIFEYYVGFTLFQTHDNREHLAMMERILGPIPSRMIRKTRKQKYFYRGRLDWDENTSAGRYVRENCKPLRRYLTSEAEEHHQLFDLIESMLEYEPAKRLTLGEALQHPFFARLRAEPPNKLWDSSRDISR

Chain of Serine/threonine-protein kinase MARK2 (Homo sapiens) (Q7KZI7 whole entry): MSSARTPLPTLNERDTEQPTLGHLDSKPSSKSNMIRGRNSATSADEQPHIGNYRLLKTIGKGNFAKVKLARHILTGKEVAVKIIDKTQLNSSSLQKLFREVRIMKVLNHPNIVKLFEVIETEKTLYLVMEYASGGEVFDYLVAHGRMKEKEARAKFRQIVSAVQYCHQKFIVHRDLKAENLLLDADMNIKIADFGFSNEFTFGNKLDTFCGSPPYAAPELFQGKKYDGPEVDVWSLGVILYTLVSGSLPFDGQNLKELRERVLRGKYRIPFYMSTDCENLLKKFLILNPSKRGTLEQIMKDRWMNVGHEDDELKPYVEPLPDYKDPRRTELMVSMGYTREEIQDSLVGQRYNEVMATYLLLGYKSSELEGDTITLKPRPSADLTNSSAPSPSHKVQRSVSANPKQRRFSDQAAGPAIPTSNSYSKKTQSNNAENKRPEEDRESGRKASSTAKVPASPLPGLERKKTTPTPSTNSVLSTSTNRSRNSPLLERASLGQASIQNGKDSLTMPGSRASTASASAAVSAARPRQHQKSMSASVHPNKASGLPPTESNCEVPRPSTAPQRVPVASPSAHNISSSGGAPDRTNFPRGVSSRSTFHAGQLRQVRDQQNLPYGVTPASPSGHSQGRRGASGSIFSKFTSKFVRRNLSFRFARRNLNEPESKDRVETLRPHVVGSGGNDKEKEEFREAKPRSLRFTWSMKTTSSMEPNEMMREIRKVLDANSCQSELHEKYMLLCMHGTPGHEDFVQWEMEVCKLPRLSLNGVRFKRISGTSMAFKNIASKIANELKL

In the case of `O=C(N[C@@H](C1CC1)C(F)(F)F)c1cc(-c2cnn3cc(-c4ccc(F)cc4)cnc23)cs1`, the fold change (FC) in [1] and in assay [2] was 0 in each case.

One may read the inhibition as how much of the control response was suppressed. In the case of `CC(C)[C@H](NC(=O)c1cc(-c2cnn3cc(-c4ccc(OCCN5CCCCC5)cc4)cnc23)cs1)C(F)(F)F`, the inhibition in assay [3] was determined as 76%; in [4] it was 47%; in [5], 0%. The fold change (FC) stood at 0 in assay [6], 0 in assay [7], 0 in [8] and 0.33 in assay [9].
